Experimental data published in patent US10174038B2, “Compounds and methods for antiviral treatment” (Gilead Sciences, Inc., priority 2012, dated 2019).

Test system: RSV strain A2
Assay: RSV antiviral activity, in vitro cytoprotection assay in Hep2 cells
Format: cell-based, Respiratory Syncytial Virus (RSV)
Settings: human respiratory syncytial virus, HEp-2; 0.5 μM compound; RSV-induced cytopathic effect in Hep2 cells; % inhibition calculated from fitted 4-parameter dose response curve, normalized to 0% and 100%; read-out: Percent inhibition at 0.5 μM
Procedure: Antiviral activity against RSV was determined using an in vitro cytoprotection assay in Hep2 cells. […] The method used was similar to methods previously described in published literature (Chapman et al., Antimicrob Agents Chemother. 2007, 51(9):3346-53.)
Hep2 cells were obtained from ATCC (Manassas, Va.) and maintained in MEM media supplemented with 10% fetal bovine serum and penicillin/streptomycin. Cells were passaged twice a week and kept at subconfluent stage. Commercial stock of RSV strain A2 (Advanced Biotechnologies, Columbia, Md.) was titered before compound testing to determine the appropriate dilution of the virus stock that generated desirable cytopathic effect in Hep2 cells.
For antiviral tests, Hep2 cells were seeded into 96-well plates 24 hours before the assay at a density of 3,000 cells/well. On a separate 96 well plate, compounds to be tested were serially diluted in cell culture media. Eight concentrations in 3-fold serial dilution increments were prepared for each tested compound and 100 uL/well of each dilution was transferred in duplicate onto plates with seeded Hep2 cells. Subsequently, appropriate dilution of virus stock previously determined by titration was prepared in cell culture media and 100 uL/well was added to test plates containing cells and serially diluted compounds. Each plate included three wells of infected untreated cells and three wells of uninfected cells that served as 0% and 100% virus inhibition control, respectively. Following the infection with RSV, testing plates were incubated for 4 days in a tissue culture incubator. After the incubation, RSV-induced cytopathic effect was determined using a Cell TiterGlo reagent (Promega, Madison, Wis.) followed by a luminescence read-out. The percentage inhibition was calculated for each tested concentration relative to the 0% and 100% inhibition controls and the EC50 value for each compound was determined by non-linear regression as a concentration inhibiting the RSV-induced cytopathic effect by 50%. Ribavirin (purchased from Sigma, St. Louis, Mo.) was used as a positive control for antiviral activity.
Compounds were also tested for antiviral activity against RSV in Hep2 cells using a 384 well format. Compounds were diluted in DMSO using a 10-step serial dilution in 3-fold increments via automation in 4 adjacent replicates each. Eight compounds were tested per dilution plate. 0.4 uL of diluted compounds were then stamped via Biomek into 384-well plates (Nunc 142761 or 164730 w/lid 264616) containing 20 μL of media (Mediatech Inc. MEM supplemented with Glutamine, 10% FBS and Pen/Strep). DMSO and a suitable positive control compound, such as 80 μM GS-329467 or 10 μM 427346 was used for the 100% and 0% cell killing controls, respectively.
Hep2 cells (1.0×10^5 cells/ml) were prepared as above in batch to at least 40 mls excess of the number of sample plates (8 mls cell mix per plate) and infected with vendor supplied (ABI) RSV strain A2 to arrive at an MOI of 1:1000 (virus:cell #) or 1:3000 (vol virus:cell vol). Immediately after addition of virus, the RSV infected Hep2 cell suspension was added to each stamped 384-well plate at 20 μl per well using a uFlow dispenser, giving a final volume of 40 μL/well, each with 2000 infected cells. The plates were then incubated for 5 days at 37° C. and 5% CO2. Following incubation, the plates were equilibrated to room temperature in a biosafety cabinet hood for 1.5 hrs and 40 μL of Cell-Titer Glo viability reagent (Promega) was added to each well via uFlow. Following a 10-20 minute incubation, the plates were read using an EnVision or Victor Luminescence plate reader (Perkin-Elmer). The data was then uploaded and analyzed on the Bioinformatics portal under the RSV Cell Infectivity and 8-plate EC50-Hep2-384 or 8-plate EC50-Hep2-Envision protocols. […]

Row | Compound | inhibition at 0.5 µM
1 | Cc1cc2nc([C@@H]3CCCCN3C(=O)c3cc(Cl)ccc3NS(C)(=O)=O)cn2nc1N1CC[C@H](N)C1 [Compound 107] | 100%
2 | Cc1cc(N2CC[C@H](N)C2)nn2cc([C@@H]3CCCCN3C(=O)c3cc(Cl)ccc3NS(C)(=O)=O)nc12 [Compound 108] | 100%
3 | Cc1ccc(NS(C)(=O)=O)c(C(=O)N2CCCC[C@H]2c2nc3cc(C)cc(C)n3n2)c1 [Compound 110] | 60%
4 | CS(=O)(=O)Nc1ccc(Cl)cc1C(=O)N1CCCC[C@H]1c1cc2ccc(N3CCC3)nn2c1 [Compound 111] | 56%
5 | Cc1ccc(NS(C)(=O)=O)c(C(=O)N2CCCC[C@H]2c2nc3c(C)cc(C)nc3[nH]2)c1 [Compound 112] | 5%
6 | Cc1cc(C)n2nc(C3CCCCN3C(=O)c3cc(Cl)ccc3NS(C)(=O)=O)nc2n1 (centres unmarked) [Compound 113] | 16%
7 | Cc1cc(NS(C)(=O)=O)c(C(=O)N2CCCC[C@H]2c2cn3nc(N4CC[C@H](N)C4)c(C)cc3n2)s1 [Compound 114] | 100%
8 | Cc1ccc(NS(C)(=O)=O)c(C(=O)N2CCCC[C@H]2c2cn3nc(N4CC[C@H](N)C4)c(C)cc3n2)c1 [Compound 115] | 100%
9 | Cc1cc2nc([C@@H]3CCCCN3C(=O)C(NS(C)(=O)=O)c3ccccc3Br)cn2nc1N1CC[C@H](N)C1 (some centres unmarked) [Compound 116] | 100%
10 | CS(=O)(=O)Nc1ccc(Cl)cc1C(=O)N1CCCC[C@H]1c1cn2nc(N3CC[C@H](N)C3)ccc2n1 [Compound 117] | 100%
11 | CS(=O)(=O)Nc1ccc(Cl)cc1C(=O)N1CCCC[C@H]1c1cn2nc(N3C[C@@H](C#N)[C@@H](O)C3)ccc2n1 [Compound 118] | 100%
12 | Cc1cccc(C(=O)N2CCCC[C@H]2c2cn3nc(N4CC[C@H](N)C4)ccc3n2)n1 [Compound 119] | 83%
13 | CS(=O)(=O)Nc1ccc(Cl)cc1C(=O)N1CCCC[C@H]1c1cn2nc(N3CC(O)C3)ccc2n1 [Compound 120] | 100%
14 | Cc1ccc(Cl)cc1C(=O)N1CCCC[C@H]1c1cn2nc(N3CC[C@H](N)C3)ccc2n1 [Compound 121] | 100%
